From PubChem BioAssay (NCI)
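48-hour exposure; five concentrations; linearly interpolated endpoints. Abbreviation: GI50, concentration required for 50% inhibition of growth. TGI: total growth inhibition.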

Experiments:
Experiment in all cases: DTP human tumour cell line panel, 48 h
[1] = test system: 786-0 renal
[2] = test system: BT-549 breast
[3] = test system: DU-145 prostate
[4] = test system: HCC-2998 colon
[5] = test system: HCT-15 colon
[6] = test system: HL-60(TB) leukemia
[7] = test system: HS 578T breast
[8] = test system: IGROV1 ovarian
[9] = test system: K-562 leukemia
[10] = test system: M14 melanoma
[11] = test system: MCF7 breast
[12] = test system: MDA-MB-435
[13] = test system: MOLT-4 leukemia
[14] = test system: NCI-H226 lung
[15] = test system: SF-539 CNS
[16] = test system: SR leukemia
[17] = test system: SW-620 colon
[18] = test system: UACC-257 melanoma
[19] = test system: A498 renal
[20] = test system: A549 NSCLC
[21] = test system: ACHN renal
[22] = test system: CAKI-1 renal
[23] = test system: CCRF-CEM leukemia
[24] = test system: COLO 205 colon
[25] = test system: EKVX NSCLC
[26] = test system: HCT-116 colon
[27] = test system: HOP-62 NSCLC
[28] = test system: HOP-92 NSCLC
[29] = test system: HT29 colon
[30] = test system: KM12 colon
[31] = test system: LOX IMVI melanoma
[32] = test system: MALME-3M melanoma
[33] = test system: MDA-MB-231 breast
[34] = test system: NCI-H23 lung
[35] = test system: NCI-H460 lung
[36] = test system: NCI-H522 lung
[37] = test system: OVCAR-3 ovarian
[38] = test system: OVCAR-4 ovarian
[39] = test system: OVCAR-5 ovarian
[40] = test system: PC-3 prostate
[41] = test system: RPMI-8226 leukemia
[42] = test system: RXF 393 renal
[43] = test system: SF-268 CNS
[44] = test system: SF-295 CNS
[45] = test system: SK-MEL-28 melanoma
[46] = test system: SK-MEL-5 melanoma
[47] = test system: SK-OV-3 ovarian
[48] = test system: SN12C renal
[49] = test system: SNB-19 CNS
[50] = test system: SNB-75 CNS
[51] = test system: TK-10 renal
[52] = test system: U251 CNS
[53] = test system: UACC-62 melanoma
[54] = test system: UO-31 renal

SMILES: Cc1nc2cc(Nc3nc(N4CCCCC4)nc(N4CCOCC4)n3)ccc2n1Cc1ccccc1
- GI50 [1]: 1.78 µM
- TGI [1]: 3.23 µM
- GI50 [2]: 2.51 µM
- TGI [2]: 7.1 µM
- GI50 [3]: 3.48 µM
- TGI [3]: > 100 µM
- GI50 [4]: 3.98 µM
- TGI [4]: > 100 µM
- GI50 [5]: 2.84 µM
- TGI [5]: > 100 µM
- GI50 [6]: 2.16 µM
- TGI [6]: 5.49 µM
- GI50 [7]: 2.71 µM
- TGI [7]: > 100 µM
- GI50 [8]: 3.76 µM
- TGI [8]: > 100 µM
- GI50 [9]: 6.71 µM
- TGI [9]: > 100 µM
- GI50 [10]: 3.92 µM
- TGI [10]: > 100 µM
- GI50 [11]: 3.28 µM
- TGI [11]: > 100 µM
- GI50 [12]: 3.41 µM
- TGI [12]: > 100 µM
- GI50 [13]: 3.6 µM
- TGI [13]: > 100 µM
- GI50 [14]: 4.06 µM
- TGI [14]: > 100 µM
- GI50 [15]: > 100 µM
- TGI [15]: > 100 µM
- GI50 [16]: 3.57 µM
- TGI [16]: > 100 µM
- GI50 [17]: 3.19 µM
- TGI [17]: > 100 µM
- GI50 [18]: 3.15 µM
- TGI [18]: > 100 µM

SMILES: C[n+]1c2ccccc2c(Nc2ccc(N3CCCCC3)cc2)c2[nH]c3ccccc3c21
- GI50 [1]: 0.456 µM
- TGI [1]: 1.69 µM
- GI50 [19]: 0.234 µM
- TGI [19]: 0.843 µM
- GI50 [20]: 0.166 µM
- TGI [20]: 0.549 µM
- GI50 [21]: 0.223 µM
- TGI [21]: 1.01 µM
- GI50 [2]: 1.16 µM
- TGI [2]: 2.45 µM
- GI50 [22]: 0.114 µM
- TGI [22]: 1.06 µM
- GI50 [23]: 0.0832 µM
- TGI [23]: 0.312 µM
- GI50 [24]: 0.14 µM
- TGI [24]: 0.344 µM
- GI50 [3]: 0.272 µM
- TGI [3]: 0.802 µM
- GI50 [25]: 0.459 µM
- TGI [25]: 1.93 µM
- GI50 [4]: 0.185 µM
- TGI [4]: 0.619 µM
- GI50 [26]: 0.132 µM
- TGI [26]: 0.361 µM
- GI50 [5]: 0.154 µM
- TGI [5]: 0.324 µM
- GI50 [6]: 0.0282 µM
- TGI [6]: 0.192 µM
- GI50 [27]: 0.456 µM
- TGI [27]: 1.81 µM
- GI50 [28]: 0.264 µM
- TGI [28]: 1.2 µM
- GI50 [7]: 0.231 µM
- TGI [7]: 0.705 µM
- GI50 [29]: 0.191 µM
- TGI [29]: 0.656 µM
- GI50 [8]: 0.229 µM
- TGI [8]: 1.18 µM
- GI50 [9]: 0.155 µM
- TGI [9]: 0.353 µM
- GI50 [30]: 0.281 µM
- TGI [30]: 0.958 µM
- GI50 [31]: 0.144 µM
- TGI [31]: 0.34 µM
- GI50 [10]: 0.346 µM
- TGI [10]: 1.47 µM
- GI50 [32]: 0.34 µM
- TGI [32]: 1.53 µM
- GI50 [11]: 0.152 µM
- TGI [11]: 0.524 µM
- GI50 [33]: 0.327 µM
- TGI [33]: 1.7 µM
- GI50 [12]: 0.442 µM
- TGI [12]: 1.65 µM
- GI50 [13]: 0.0536 µM
- TGI [13]: 1.18 µM
- GI50 [14]: 0.324 µM
- TGI [14]: 1.8 µM
- GI50 [34]: 0.349 µM
- TGI [34]: 1.68 µM
- GI50 [35]: 0.152 µM
- TGI [35]: 0.48 µM
- TGI [36]: 0.0908 µM
- GI50 [37]: 0.185 µM
- TGI [37]: 0.368 µM
- GI50 [38]: 0.326 µM
- TGI [38]: 1.23 µM
- GI50 [39]: 0.658 µM
- TGI [39]: 2.09 µM
- GI50 [40]: 0.154 µM
- TGI [40]: 0.416 µM
- GI50 [41]: 0.081 µM
- TGI [41]: 0.262 µM
- GI50 [42]: 0.174 µM
- TGI [42]: 0.347 µM
- GI50 [43]: 0.46 µM
- TGI [43]: 1.62 µM
- GI50 [44]: 0.379 µM
- TGI [44]: 1.55 µM
- GI50 [15]: 0.617 µM
- TGI [15]: 1.9 µM
- GI50 [45]: 0.418 µM
- TGI [45]: 1.36 µM
- GI50 [46]: 0.333 µM
- TGI [46]: 1.46 µM
- GI50 [47]: 0.515 µM
- TGI [47]: 1.85 µM
- GI50 [48]: 0.212 µM
- TGI [48]: 1.24 µM
- GI50 [49]: 0.427 µM
- TGI [49]: 1.76 µM
- GI50 [50]: 0.522 µM
- TGI [50]: 1.91 µM
- GI50 [16]: 3.79 µM
- TGI [16]: > 100 µM
- GI50 [17]: 0.184 µM
- TGI [17]: 0.726 µM
- GI50 [51]: 1.23 µM
- TGI [51]: 2.6 µM
- GI50 [52]: 0.205 µM
- TGI [52]: 0.67 µM
- GI50 [18]: 0.417 µM
- TGI [18]: 1.07 µM
- GI50 [53]: 0.194 µM
- TGI [53]: 0.861 µM
- GI50 [54]: 0.144 µM
- TGI [54]: 0.833 µM
